Source: the NIST ThermoML archive (doi:10.1021/je0501639)
± gives the expanded uncertainty stated by the source.

Experiments:
[1] = xn = mol fraction of the nth substance listed; details: 318.15 K, 100.8 kPa, Liquid
[2] = refractive index (Na D-line) (dimensionless); xn = mol fraction of the nth substance listed; details: 100.8 kPa, Liquid, Standard Abbe refractometry

CC(C)CC(C)(C)C [2,2,4-trimethylpentane] + CCO
[1]
Details	mass density [kg/m3]	viscosity [mPa·s]
x2 = 0.25	678.74 ± 0.33	0.387 ± 0.013
x2 = 0.3	681.05 ± 0.33	0.392 ± 0.013
x2 = 0.35	683.6 ± 0.32	0.401 ± 0.013
x2 = 0.4	686.41 ± 0.32	0.413 ± 0.013
x2 = 0.45	689.53 ± 0.32	0.426 ± 0.014
x2 = 0.5	693 ± 0.32	0.443 ± 0.014
x2 = 0.55	696.87 ± 0.31	0.461 ± 0.014
x2 = 0.6	701.18 ± 0.31	0.483 ± 0.014
x2 = 0.65	706 ± 0.3	0.505 ± 0.014
x2 = 0.7	711.43 ± 0.3	0.528 ± 0.014
x2 = 0.75	717.6 ± 0.3	0.557 ± 0.014
x2 = 0.8	724.66 ± 0.29	0.589 ± 0.015
x2 = 0.85	732.81 ± 0.29	0.626 ± 0.015
x2 = 0.9	742.33 ± 0.28	0.668 ± 0.015
x2 = 0.95	753.76 ± 0.27	0.712 ± 0.016

refractive index, [2]
Details	298.15 K	308.15 K	318.15 K
x2 = 0	1.38898 ± 0.00032	1.38398 ± 0.00032	1.37898 ± 0.00032
x2 = 0.05	1.38825 ± 0.00032	1.38325 ± 0.00032	1.37815 ± 0.00032
x2 = 0.1	1.38749 ± 0.00032	1.38247 ± 0.00032	1.37738 ± 0.00032
x2 = 0.15	1.38668 ± 0.00032	1.38169 ± 0.00032	1.37662 ± 0.00032
x2 = 0.2	1.38586 ± 0.00032	1.38087 ± 0.00032	1.37584 ± 0.00032
x2 = 0.25	1.38499 ± 0.00032	1.38002 ± 0.00032	1.37503 ± 0.00032
x2 = 0.3	1.38408 ± 0.00032	1.37913 ± 0.00032	1.37417 ± 0.00032
x2 = 0.35	1.38311 ± 0.00032	1.37819 ± 0.00032	1.37326 ± 0.00032
x2 = 0.4	1.38208 ± 0.00032	1.37719 ± 0.00032	1.37229 ± 0.00032
x2 = 0.45	1.38098 ± 0.00032	1.37612 ± 0.00032	1.37125 ± 0.00032
x2 = 0.5	1.3798 ± 0.00032	1.37497 ± 0.00032	1.37013 ± 0.00032
x2 = 0.55	1.37853 ± 0.00032	1.37373 ± 0.00032	1.36892 ± 0.00032
x2 = 0.6	1.37716 ± 0.00031	1.37239 ± 0.00031	1.36762 ± 0.00031
x2 = 0.65	1.37567 ± 0.00031	1.37093 ± 0.00031	1.36621 ± 0.00031
x2 = 0.7	1.37403 ± 0.00031	1.36933 ± 0.00031	1.36466 ± 0.00031
x2 = 0.75	1.37223 ± 0.00031	1.36757 ± 0.00031	1.36295 ± 0.00031
x2 = 0.8	1.37023 ± 0.00031	1.36562 ± 0.00031	1.36106 ± 0.00031
x2 = 0.85	1.36799 ± 0.00031	1.36345 ± 0.00031	1.35896 ± 0.00031
x2 = 0.9	1.36547 ± 0.00031	1.36102 ± 0.00031	1.3566 ± 0.00031
x2 = 0.95	1.36261 ± 0.00031	1.35826 ± 0.00031	1.35396 ± 0.00031
